We go through 10 compounds from ChEMBL document CHEMBL1143006, “Examination of acylated 4-aminopiperidine-4-carboxylic acid residues in the phosphotyrosyl+1 position of Grb2 SH2 domain-binding tripeptides” (J Med Chem, 2007).

SMILES strings stand for the structures.

This assay has as its target Growth factor receptor-bound protein 2 (Homo sapiens, UniProt P62993). In words: Binding affinity to Grb2-SH2 domain by surface plasmon resonance.

Growth factor receptor-bound protein 2, sequence (P62993 whole entry, the tested form may be a part): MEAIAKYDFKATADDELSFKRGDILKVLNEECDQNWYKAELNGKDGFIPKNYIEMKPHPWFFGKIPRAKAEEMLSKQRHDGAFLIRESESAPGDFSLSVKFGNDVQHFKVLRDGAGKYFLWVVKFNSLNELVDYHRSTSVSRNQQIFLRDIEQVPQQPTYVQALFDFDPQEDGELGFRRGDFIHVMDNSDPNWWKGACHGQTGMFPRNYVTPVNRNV

Take `NC(=O)C[C@H](NC(=O)C1(NC(=O)[C@@H](CC(=O)O)Cc2ccc(CP(=O)(O)O)cc2)CCN(S(=O)(=O)CCc2ccccc2)CC1)C(=O)NCCCc1ccc2ccccc2c1`: the affinity, expressed as Kd, was 2140 nM.

The compound `NC(=O)C[C@H](NC(=O)C1(NC(=O)[C@@H](CC(=O)O)Cc2ccc(CP(=O)(O)O)cc2)CCN(C(=O)OCc2ccc(C(=O)O)cc2)CC1)C(=O)NCCCc1ccc2ccccc2c1` returned a Kd of 871 nM. Then `NC(=O)C[C@H](NC(=O)C1(NC(=O)[C@@H](CC(=O)O)Cc2ccc(CP(=O)(O)O)cc2)CCN(C(=O)NCCc2ccccc2)CC1)C(=O)NCCCc1ccc2ccccc2c1`, with 272 nM; and `COCCOC(=O)N1CCC(NC(=O)[C@@H](CC(=O)O)Cc2ccc(CP(=O)(O)O)cc2)(C(=O)N[C@@H](CC(N)=O)C(=O)NCCCc2ccc3ccccc3c2)CC1`, with 202 nM.

In turn, `Cc1ccc2c(ccn2CCC(=O)N2CCC(NC(=O)[C@@H](CC(=O)O)Cc3ccc(CP(=O)(O)O)cc3)(C(=O)N[C@@H](CC(N)=O)C(=O)NCCCc3ccc4ccccc4c3)CC2)c1` displayed a Kd of 458 nM. The same measure for `NC(=O)C[C@H](NC(=O)C1(NC(=O)[C@@H](CC(=O)O)Cc2ccc(CP(=O)(O)O)cc2)CCN(C(=O)CCCc2ccccc2)CC1)C(=O)NCCCc1ccc2ccccc2c1`: 27 nM. The same measure for `NC(=O)C[C@H](NC(=O)C1(NC(=O)[C@@H](CC(=O)O)Cc2ccc(CP(=O)(O)O)cc2)CCN(C(=O)CCCCc2ccccc2)CC1)C(=O)NCCCc1ccc2ccccc2c1`: 2180 nM. `NC(=O)C[C@H](NC(=O)C1(NC(=O)[C@@H](CC(=O)O)Cc2ccc(CP(=O)(O)O)cc2)CCN(C(=O)OCCc2ccccc2)CC1)C(=O)NCCCc1ccc2ccccc2c1`: the Kd came to 36 nM. Against the preceding compound, the Kd is about 61-fold lower. The same measure for `COC(=O)N1CCC(NC(=O)[C@@H](CC(=O)O)Cc2ccc(CP(=O)(O)O)cc2)(C(=O)N[C@@H](CC(N)=O)C(=O)NCCCc2ccc3ccccc3c2)CC1`: 106 nM. The same measure for `NC(=O)C[C@H](NC(=O)C1(NC(=O)[C@@H](CC(=O)O)Cc2ccc(CP(=O)(O)O)cc2)CCN(C(=O)OCc2ccccc2)CC1)C(=O)NCCCc1ccc2ccccc2c1`: 320 nM.
